Experimental data from article PMC12118337, “Development of a Peptide Inhibitor Targeting the C‐SH2 Domain of the SHP2 Phosphatase” (Chembiochem, 2025).
Residues, ends and D or L forms follow the SMILES beside them. *: point of attachment. 5FAM = O=C1OC2(c3ccc(O)cc3Oc3cc(O)ccc32)c2ccc(C(=O)*)cc21; X1 = O=C(O)C(C(=O)O)*

Biological target: T1, SHP2 PTP domain (Homo sapiens, UniProt Q06124)
T1 construct: SHP2 N-SH2 domain (1–105), C-SH2 domain (106–220), PTP domain (224–541) and; His6 (pETM22 vector) (N, cleaved yes); made in house; host or cells: E. coli BL21(DE3) Tuner
T1 sequence (Q06124 224-541): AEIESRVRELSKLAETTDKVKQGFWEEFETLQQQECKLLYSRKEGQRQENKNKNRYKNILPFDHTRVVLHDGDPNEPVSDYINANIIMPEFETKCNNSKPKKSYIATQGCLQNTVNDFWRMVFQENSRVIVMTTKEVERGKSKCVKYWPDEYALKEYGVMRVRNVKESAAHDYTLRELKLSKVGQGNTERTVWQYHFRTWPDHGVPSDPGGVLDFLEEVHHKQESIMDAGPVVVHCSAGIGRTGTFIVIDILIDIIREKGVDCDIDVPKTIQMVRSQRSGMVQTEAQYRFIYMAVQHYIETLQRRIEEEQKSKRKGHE
Assay: FP binding assay, SHP2 PTP domain
Conditions: 100 nM peptide, increasing C-SH2, N-SH2 or PTP domain
Method: buffer and stored in 5 mL binding buffer at 4°C. His-tagged 3C protease (0.5 mg; EMBL) was added to the pooled eluted fractions and dialysed using Spectra Por Dialysis Tubing (MWCO 6-8 kDa, 23 mm; Spectrum Labs) in 1 L of binding buffer at 4°C for 3 hours, then overnight in fresh buffer. A new column was prepared by loading 2 mL Ni-NTA Agarose (Invitrogen) as a 50% slurry in EtOH. The column was washed with 10 mL H2O to remove the EtOH and equilibrated with 10 mL binding buffer. The protein/3C protease mixture was loaded onto the column and incubated for 1 hour at 4°C on a rocker. […] Protein purification was monitored by SDS-PAGE using NuPAGE 4-12% Bis-Tris Protein Gels (Invitrogen) run in MOPS buffer (50 mM MOPS, 50 mM Tris-HCl pH 7.7, 1 mM EDTA, 0.1% SDS) followed by Coomassie staining using Coomassie Brilliant Blue (Roth). […]
4. Fluorescence polarization
Fluorescence polarization (FP) was used to measure the binding of FAM-labelled peptides to the SHP2 C-SH2, SHP2 N-SH2, SHP2 PTP, CSK SH2 or Src SH2 domains. […]
concentration of 100 nM in a final volume of 200 µL. […] The FP was immediately measured on a Synergy H1 Microplate Reader (BioTek) with the excitation and emission monitored at 485 nm and 528 nm, respectively, over 30 minutes. FP values were automatically calculated by the Gen5 3.03 (BioTek) software associated with the microplate reader. […]

binding selectivity for C‐SH2 over N‐SH2 and PTP domains: maintained binding selectivity
SMILES: CC[C@H](C)[C@H](NC(=O)[C@@H](NC(=O)[C@H](C)NC(=O)[C@H](Cc1ccc(OC(C(=O)O)C(=O)O)cc1)NC(=O)[C@H](CCC(=O)O)NC(=O)[C@@H](NC(=O)[C@H](CCC(N)=O)NC(=O)c1ccc2c(c1)C(=O)OC21c2ccc(O)cc2Oc2cc(O)ccc21)[C@@H](C)O)[C@@H](C)O)C(=O)N[C@@H](CCCCN)C(=O)N[C@@H](Cc1c[nH]cn1)C(=O)N1CCC[C@H]1C(N)=O [peptide 26] (5FAM-QTEY(X1)ATIKHP-NH2)
